According to PMC6264673, “Synthesis and SAR Study of Novel Peptide Aldehydes as Inhibitors of 20S Proteasome” (Molecules, 2011):
Non-standard residues stand in square brackets, D forms with d. Residues, ends and D or L forms follow the SMILES beside them. *: point of attachment. Arg(NO2) = N=C(NCCC[C@H](N)C(=O)O)N[N+](=O)[O-]; 2Nal = N[C@@H](Cc1ccc2ccccc2c1)C(=O)O; Tos = Cc1ccc(S(=O)(=O)*)cc1; Cbz = O=C(OCc1ccccc1)*; Boc = CC(C)(C)OC(=O)*; OBn = c1ccc(CO*)cc1; Bn = c1ccc(C*)cc1; OtBu = CC(C)(C)O*

Target: T1, ChT-L activity of 20S proteasome (Mus musculus, UniProt O09061+O55234)
T1 construct: 20S proteasome purified from mouse liver; from tissue; host or cells: mouse liver
Assay: Assay for ChT-L activity of 20S proteasome with fluorogenic peptide Suc-Leu-Leu-Val-Tyr-AMC
Assay type: biochemical
Settings: for IC50: 20S proteasome purified from mouse liver (1 μg), 50 μM Suc-Leu-Leu-Val-Tyr-AMC, 20 mM Tris-HCl pH 7.8, 37 °C, 1 h; for fold higher ChT-L inhibitory activity than the other Cbz series compounds: comparison within the Cbz series; for ChT-L inhibitory activity compared with the control MG132: result in words, versus positive control MG132
Protocol: Inhibitory activities of peptide aldehydes on the 20S proteasome are assayed in vitro [41]. MG132 was used as the positive control (Table 1).
Assays for proteasome activities. The enzymatic activities of the proteasome were assayed using fluorogenic peptides: Suc-Leu-Leu-Val-Tyr-AMC (Suc represents succinyl and AMC represents […], obtained from Sigma) for ChT-L activity. 20S proteasome purified from mouse liver (1 μg) was incubated with various concentrations of compounds and 50 μM fluorogenic peptides in 20 mM Tris-HCl pH 7.8 (100 μL) at 37 °C for 1 h, respectively. The fluorescence of released AMC was measured by a spectrofluorimeter (Fluostar OPTIMA, BMG Germany) at excitation/emission wavelengths of 380/440 nm and 335/410 nm, respectively. 0.1% DMSO was used as solvent control. Compared with the fluorescence of solvent control, an inhibition rate was calculated and thereafter the IC50 value was deduced.

IC50 | fold higher ChT-L inhibitory activity than the other Cbz series compounds | Compound | ChT-L inhibitory activity compared with the control MG132
210 ± 14 nM |  | CC(C)CC(C=O)NC(=O)C(Cc1ccccc1)NC(=O)C(CC(=O)OC(C)(C)C)NC(=O)OCc1ccccc1 [Compound 3a, Cbz-L-Asp(OtBu)-L-Phe-L-Leucinal] (Cbz-Asp(OtBu)-Phe-Leu-aldehyde; configuration not given here) | 
200 ± 35 nM |  | CC(C)CC(C=O)NC(=O)C(CC(C)C)NC(=O)C(CC(=O)OC(C)(C)C)NC(=O)OCc1ccccc1 [Compound 3b, Cbz-L-Asp(OtBu)-L-Leu-L-Leucinal] (Cbz-Asp(OtBu)-Leu-Leu-aldehyde; configuration not given here) | 
28 ± 6 nM | about 10 fold | CC(C)C[C@@H](C=O)NC(=O)[C@H](Cc1ccccc1)NC(=O)[C@H](CCC(=O)OC(C)(C)C)NC(=O)OCc1ccccc1 [Compound 3c, Cbz-L-Glu(OtBu)-L-Phe-L-Leucinal] (Cbz-Glu(OtBu)-Phe-Leu-aldehyde) | much higher activities than the control MG132
89 ± 20 nM | about 10 fold | CC(C)C[C@@H](C=O)NC(=O)[C@H](CC(C)C)NC(=O)[C@H](CCC(=O)OC(C)(C)C)NC(=O)OCc1ccccc1 [Compound 3d, Cbz-L-Glu(OtBu)-L-leu-L-Leucinal] (Cbz-Glu(OtBu)-Leu-Leu-aldehyde) | much higher activities than the control MG132
> 50000 nM |  | Cc1ccc(S(=O)(=O)NC(=N)NCCCC(NC(=O)OCc2ccccc2)C(=O)NC(CC(C)C)C(=O)NC(C=O)CC(C)C)cc1 [Compound 3g, Cbz-L-Arg(Tos)-L-leu-L-Leucinal] (Cbz-Arg(Tos)-Leu-Leu-aldehyde; configuration not given here) | 
410 ± 82 nM |  | CC(C)C[C@@H](C=O)NC(=O)[C@H](CC(C)C)NC(=O)[C@H](Cc1ccc2ccccc2c1)NC(=O)OCc1ccccc1 [Compound 3h, Cbz-L-(2-Naphthyl)alanine-L-Leu-L-Leucinal] (Cbz-[2Nal]-Leu-Leu-aldehyde) | 
4830 ± 2300 nM |  | CC(C)C[C@@H](C=O)NC(=O)[C@H](Cc1ccccc1)NC(=O)[C@H](CC(=O)OCc1ccccc1)NC(=O)OC(C)(C)C [Compound 3i, Boc-L-Asp(OBzl)-L-Phe-L-Leucinal] (Boc-Asp(OBn)-Phe-Leu-aldehyde) | 
20300 ± 2050 nM |  | CC(C)CC(C=O)NC(=O)C(CC(C)C)NC(=O)C(CC(=O)OCc1ccccc1)NC(=O)OC(C)(C)C [Compound 3j, Boc-L-Asp(OBzl)-L-Leu-L-Leucinal] (Boc-Asp(OBn)-Leu-Leu-aldehyde; configuration not given here) | 
7140 ± 1930 nM |  | CC(C)C[C@@H](C=O)NC(=O)[C@H](Cc1ccccc1)NC(=O)[C@H](CCC(=O)OCc1ccccc1)NC(=O)OC(C)(C)C [Compound 3k, Boc-L-Glu(OBzl)-L-Phe-L-Leucinal] (Boc-Glu(OBn)-Phe-Leu-aldehyde) | 
> 50000 nM |  | CC(C)C[C@@H](C=O)NC(=O)[C@H](CC(C)C)NC(=O)[C@H](CCC(=O)OCc1ccccc1)NC(=O)OC(C)(C)C [Compound 3l, Boc-L-Glu(OBzl)-L-Leu-L-Leucinal] (Boc-Glu(OBn)-Leu-Leu-aldehyde) | 
> 50000 nM |  | CC(C)CC(C=O)NC(=O)C(Cc1ccccc1)NC(=O)C1CCCN1C(=O)OC(C)(C)C [Compound 3m, Boc-L-Pro-L-Phe-L-Leucinal] (Boc-Pro-Phe-Leu-aldehyde; configuration not given here) | 
> 50000 nM |  | CC(C)CC(C=O)NC(=O)C(CC(C)C)NC(=O)C1CCCN1C(=O)OC(C)(C)C [Compound 3n, Boc-L-Pro-L-Leu-L-Leucinal] (Boc-Pro-Leu-Leu-aldehyde; configuration not given here) | 
50 ± 2 nM |  | CC(C)CC(C=O)NC(=O)C(CC(C)C)NC(=O)C(COCc1ccccc1)NC(=O)OC(C)(C)C [Compound 3o, Boc-L-Ser(OBn)-L-Leu-L-Leucinal] (Boc-Ser(Bn)-Leu-Leu-aldehyde; configuration not given here) | much higher activities than the control MG132
290 ± 21 nM |  | CC(C)CC(C=O)NC(=O)C(CC(C)C)NC(=O)C(NC(=O)OC(C)(C)C)C(C)OCc1ccccc1 [Compound 3p, Boc-L-Thr(OBn)-L-Leu-L-Leucinal] (Boc-Thr(Bn)-Leu-Leu-aldehyde; configuration not given here) | 
> 50000 nM |  | CC(C)CC(C=O)NC(=O)C(CC(C)C)NC(=O)C(Cc1ccc(OCc2ccccc2)cc1)NC(=O)OC(C)(C)C [Compound 3q, Boc-L-Tyr(OBn)-L-Leu-L-Leucinal] (Boc-Tyr(Bn)-Leu-Leu-aldehyde; configuration not given here) | 
280 ± 60 nM |  | CC(C)C[C@@H](C=O)NC(=O)[C@H](CC(C)C)NC(=O)[C@H](CC(C)C)NC(=O)OCc1ccccc1 [MG132, Cbz-L-Leu-L-Leu-L-Leucinal, reference compound] (Cbz-Leu-Leu-Leu-aldehyde) | 
850 ± 47 nM |  | Cbz-L-Phe-L-leu-L-Leucinal [Compound 3e] | 

Compound | IC50 | fold higher ChT-L inhibitory activity than the other Cbz series compounds | ChT-L inhibitory activity compared with the control MG132
CC(C)C[C@@H](C=O)NC(=O)[C@H](CC(C)C)NC(=O)[C@H](CCCNC(N)=N[N+](=O)[O-])NC(=O)OCc1ccccc1 [Compound 3f, Cbz-L-Arg(NO2)-L-leu-L-Leucinal] (Cbz-[Arg(NO2)]-Leu-Leu-aldehyde) | > 50000 nM |  | 
